The source made the active and inactive calls. No cut-off for these calls is given here.
What was measured:
C3H 10T1/2 [1] = assay: Cytotoxicity against mouse C3H10T1/2 cells assessed as reduction in cell viability at 1 to 5 uM after 24 hrs by MTT assay; type: cell-based; conditions: c3h 10t1/2, 24 h
MC3T3-E1 [2] = assay: Cytotoxicity against mouse MC3T3-E1 cells assessed as reduction in cell viability at 1 to 5 uM after 24 hrs by MTT assay; type: cell-based; conditions: mc3t3-e1, 24 h
C3H 10T1/2 [3] = assay: Cytotoxicity against mouse C3H10T1/2 cells assessed as reduction in cell viability at >10 uM after 24 hrs by MTT assay; type: cell-based; conditions: c3h 10t1/2, 24 h
MC3T3-E1 [4] = assay: Cytotoxicity against mouse MC3T3-E1 cells assessed as reduction in cell viability at >10 uM after 24 hrs by MTT assay; type: cell-based; conditions: mc3t3-e1, 24 h
C3H 10T1/2 [5] = assay: Induction of osteoblast differentiation in mouse C3H10T1/2 cells assessed as increase in Id1 mRNA expression at 5 uM after 2 days by RT-PCR analysis; type: functional, cell-based
C3H 10T1/2 [6] = assay: Induction of osteoblast differentiation in mouse C3H10T1/2 cells assessed as increase in Dlx5 mRNA expression at 5 uM after 2 days by RT-PCR analysis; type: functional, cell-based
C3H 10T1/2 [7] = assay: Induction of osteoblast differentiation in mouse C3H10T1/2 cells assessed as increase in Runx2 mRNA expression at 5 uM after 2 days by RT-PCR analysis; type: functional, cell-based
C3H 10T1/2 [8] = assay: Induction of osteoblast differentiation in mouse C3H10T1/2 cells assessed as increase in Id1 mRNA expression at 5 uM after 2 days by qPCR analysis; type: functional, cell-based
C3H 10T1/2 [9] = assay: Induction of osteoblast differentiation in mouse C3H10T1/2 cells assessed as increase in Dlx5 mRNA expression at 5 uM after 2 days by qPCR analysis; type: functional, cell-based
C3H 10T1/2 [10] = assay: Induction of osteoblast differentiation in mouse C3H10T1/2 cells assessed as increase in Runx2 mRNA expression at 5 uM after 2 days by qPCR analysis; type: functional, cell-based
MC3T3-E1 [11] = assay: Induction of osteoblast differentiation in mouse MC3T3-E1 cells assessed as increase in Id1 mRNA expression at 5 uM after 2 days by RT-PCR analysis; type: functional, cell-based
MC3T3-E1 [12] = assay: Induction of osteoblast differentiation in mouse MC3T3-E1 cells assessed as increase in Dlx5 mRNA expression at 5 uM after 2 days by RT-PCR analysis; type: functional, cell-based
MC3T3-E1 [13] = assay: Induction of osteoblast differentiation in mouse MC3T3-E1 cells assessed as increase in Runx2 mRNA expression at 5 uM after 2 days by RT-PCR analysis; type: functional, cell-based
MC3T3-E1 [14] = assay: Induction of osteoblast differentiation in mouse MC3T3-E1 cells assessed as increase in Id1 mRNA expression at 5 uM after 2 days by qPCR analysis; type: functional, cell-based
MC3T3-E1 [15] = assay: Induction of osteoblast differentiation in mouse MC3T3-E1 cells assessed as increase in Dlx5 mRNA expression at 5 uM after 2 days by qPCR analysis; type: functional, cell-based
MC3T3-E1 [16] = assay: Induction of osteoblast differentiation in mouse MC3T3-E1 cells assessed as increase in Runx2 mRNA expression at 5 uM after 2 days by qPCR analysis; type: functional, cell-based
C3H 10T1/2 [17] = assay: Induction of osteoblast differentiation in mouse C3H10T1/2 cells assessed as increase in Runx2 protein level at 5 uM after 2 days by Western blot analysis; type: functional, cell-based
MC3T3-E1 [18] = assay: Induction of osteoblast differentiation in mouse MC3T3-E1 cells assessed as increase in Runx2 protein level at 5 uM after 2 days by Western blot analysis; type: functional, cell-based
MC3T3-E1 [19] = assay: Induction of osteoblast differentiation in mouse MC3T3-E1 cells assessed as increase in ALP activity at 5 uM after 4 days BCIP/NBT liquid substrate based assay; type: functional, cell-based
MC3T3-E1 [20] = assay: Induction of mineralization in mouse MC3T3-E1 cells at 5 uM after 14 days by alizarin red S staining based assay; type: functional, cell-based
MC3T3-E1 [21] = assay: Induction of osteoblast differentiation in mouse MC3T3-E1 cells assessed as increase in ALP activity at 5 uM after 4 days in presence of ascorbic acid/beta-GP BCIP/NBT liquid substrate based assay; type: functional, cell-based
MC3T3-E1 [22] = assay: Induction of mineralization in mouse MC3T3-E1 cells at 5 uM after 14 days in presence of ascorbic acid/beta-GP by alizarin red S staining based assay; type: functional, cell-based
MC3T3-E1 [23] = assay: Increase in Runx2 (unknown origin) promoter activity expressed in mouse MC3T3-E1 cells at 5 uM after 48 hrs by luciferase reporter gene assay; type: cell-based
[24] = Increase in Runx2 (unknown origin) promoter activity expressed in mouse C3H10T1/2 cells at 5 uM after 48 hrs by luciferase reporter gene assay; type: cell-based
MC3T3-E1 [25] = assay: Induction of osteoblast differentiation in Runx2 knockdown mouse MC3T3-E1 cells assessed as increase in ALP activity at 5 uM after 4 days BCIP/NBT liquid substrate based assay; type: functional, cell-based

## C=C1[C@@H]2[C@H]3OC(=O)C(=C)[C@@H]3CCC(=C)[C@@H]2C[C@@H]1O [ZALUZANIN C]
C3H 10T1/2 [1]
  Activity: Non-Toxic
MC3T3-E1 [2]
  Activity: Non-Toxic
C3H 10T1/2 [3]
  Activity: Toxic
MC3T3-E1 [4]
  Activity: Toxic
C3H 10T1/2 [5]
  Activity: Active
C3H 10T1/2 [6]
  Activity: Active
C3H 10T1/2 [7]
  Activity: Active
C3H 10T1/2 [8]
  Activity: Active
C3H 10T1/2 [9]
  Activity: Active
C3H 10T1/2 [10]
  Activity: Active
MC3T3-E1 [11]
  Activity: Active
MC3T3-E1 [12]
  Activity: Active
MC3T3-E1 [13]
  Activity: Active
MC3T3-E1 [14]
  Activity: Active
MC3T3-E1 [15]
  Activity: Active
MC3T3-E1 [16]
  Activity: Active
C3H 10T1/2 [17]
  Activity: Active
MC3T3-E1 [18]
  Activity: Active
MC3T3-E1 [19]
  Activity: Active
MC3T3-E1 [20]
  Activity: Active
MC3T3-E1 [21]
  Activity: Active
MC3T3-E1 [22]
  Activity: Active
MC3T3-E1 [23]
  Activity: Active
[24]
  Activity: Active
MC3T3-E1 [25]
  Activity: inactive

From ChEMBL document CHEMBL4177602, “Zaluzanin C (ZC) induces osteoblast differentiation through regulating of osteogenic genes expressions in early stage of differentiation” (Bioorg Med Chem Lett, 2017)
